Assay [1] concerns the target T1, PRMT5 (Homo sapiens, UniProt O14744).
T1 construct: purchased Viva (custom protein)
Description: PRMT5 biochemical IC50 assay with no cofactor. The note with it: PRMT5, no cofactor. An excerpt:
Table 1 indicates IC50 values (μM) against PRMT5 for exemplary compounds in the presence of SAM as cofactor, with no cofactor, and with MTA as cofactor, respectively (columns 4-6). […] Ki values can be calculated from the IC50 values as described in the Examples section. As detailed in the Examples section, for the assay performed in the presence of SAM, IC50=Ki×1.5 (Ki=IC50/1.5).

In assay [2] the test system is HAP1 MTAP-deleted cell line. Description: SDMA in-cell western assay, HAP1 MTAP-deleted. Format: cell-based. The note with it: for IC50: Homo sapiens, HAP1, SDMA in-cell western, HAP1 MTAP-deleted; for MTAP intact/deleted ratio: SDMA in-cell western. An outline of the steps:
(§1)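 IC50 values come from SDMA signal quantified by in-cell western in two HAP1 lines, one with native MTAP levels and one lacking MTAP.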

Assay [3] concerns the target T1, PRMT5. Description: PRMT5 biochemical IC50 assay with SAM as cofactor. The note with it: PRMT5, SAM as cofactor; read-out: SAM IC50.
Assay [4] concerns HAP1 MTAP-deleted cell line. Description: Viability assay, MTAP-deleted cell line. It counts as cell-based. The note with it: Homo sapiens, read-out: HAP1 MTAP deleted viability. The text has this:
Table 1 additionally indicates IC50 values in a viability assay for the MTAP-deleted cell line (column 10), indicating the effect of treatment with compound on cell survival.

Assay [5] deals with HAP1 MTAP-intact cell line. Description: SDMA in-cell western assay, HAP1 MTAP-intact. Format: cell-based. The note with it: Homo sapiens, HAP1, SDMA in-cell western, HAP1 MTAP-intact; read-out: MTAP HAP1 intact IC50. In a few lines:
as §1

For assay [6], the target named is T1, PRMT5. Description: PRMT5 biochemical IC50 assay with MTA as cofactor. The conditions noted are these: PRMT5, MTA as cofactor; read-out: MTA IC50.
[7] abbreviates: read-out: HAP1 MTAP deleted IC50.
Setting [8] is: IC50 ratio HAP1 MTAP-intact vs HAP1 MTAP-deleted.
The mark [9] stands for this setting: HAP1, viability assay, MTAP-deleted cell line.
Where [10] appears, read: read-out: No Cofactor/ rel IC50.
[11] abbreviates: read-out: HAP 1 MTAP deleted IC50.
The mark [12] stands for this setting: IC50 ratio HAP1 MTAP-intact / HAP1 MTAP-deleted.
The mark [13] stands for this setting: HAP1, viability IC50, MTAP-deleted cell line.
The mark [14] stands for this setting: HAP1, viability assay, HAP1 MTAP-deleted.
The mark [15] stands for this setting: HAP1, viability, HAP1 MTAP-deleted cell line.

The structures appear in SMILES notation. Bounds are passed on as bounds.

T1 sequence (O14744 whole entry): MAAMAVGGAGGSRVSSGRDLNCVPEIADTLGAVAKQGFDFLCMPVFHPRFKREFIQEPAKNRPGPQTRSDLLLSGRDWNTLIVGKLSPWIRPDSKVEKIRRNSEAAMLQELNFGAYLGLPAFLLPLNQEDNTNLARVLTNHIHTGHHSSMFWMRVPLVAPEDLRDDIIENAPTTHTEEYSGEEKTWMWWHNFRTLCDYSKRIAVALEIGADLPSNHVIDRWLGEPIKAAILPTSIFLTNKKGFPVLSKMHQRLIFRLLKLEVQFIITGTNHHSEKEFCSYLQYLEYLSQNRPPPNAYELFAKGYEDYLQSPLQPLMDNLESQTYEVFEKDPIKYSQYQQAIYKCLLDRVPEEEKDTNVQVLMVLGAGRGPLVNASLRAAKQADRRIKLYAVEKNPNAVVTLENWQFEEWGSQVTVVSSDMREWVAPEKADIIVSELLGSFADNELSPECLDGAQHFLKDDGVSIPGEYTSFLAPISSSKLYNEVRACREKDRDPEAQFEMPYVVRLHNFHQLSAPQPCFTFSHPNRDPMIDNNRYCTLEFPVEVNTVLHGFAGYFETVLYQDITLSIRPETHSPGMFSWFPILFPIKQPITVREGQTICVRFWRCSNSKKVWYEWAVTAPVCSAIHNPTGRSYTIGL
T1 sequence (Q9BQA1 whole entry partner): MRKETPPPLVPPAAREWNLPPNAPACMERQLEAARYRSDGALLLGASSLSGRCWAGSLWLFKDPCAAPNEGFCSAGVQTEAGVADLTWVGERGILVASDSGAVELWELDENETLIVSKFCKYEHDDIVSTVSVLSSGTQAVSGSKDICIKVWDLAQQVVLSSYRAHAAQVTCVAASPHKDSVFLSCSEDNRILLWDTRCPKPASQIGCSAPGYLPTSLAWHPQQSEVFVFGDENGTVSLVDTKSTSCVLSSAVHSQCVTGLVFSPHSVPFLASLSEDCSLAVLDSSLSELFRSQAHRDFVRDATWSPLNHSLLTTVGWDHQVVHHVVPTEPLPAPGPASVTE

Regarding `CCc1cc(NC(=O)C(=O)N2C[C@@H](C)CC[C@@H]2c2ccc3sc([C@H]4C[C@H](N(C)C)C4)nc3c2)cnc1N` [Compound 1101, N-(6-amino-5-ethylpyridin-3-yl)-2-((2R,5S)-2-(2-(3-(dimethylamino)cyclobutyl)benzo[d]thiazol-5-yl)-5-methylpiperidin-1-yl)-2-oxoacetamide], the IC50 was < 50 nM on PRMT5 [1] (read-out: No Cofactor/rel IC50); < 100 nM in assay [2] (setting [7]); < 50 nM at PRMT5 [3]; < 1000 nM in assay [4] (setting [9]); < 100 nM in assay [5]; < 50 nM on PRMT5 [6]. Also, the MTAP intact/deleted ratio entry in assay [2] (setting [8]) is reported as “A (an IC50 ratio greater than or equal to 10 fold)”.

Turning to `C[C@H]1CC[C@@H](C2CCCCC2)N(C(=O)C(=O)Nc2cncc(C(N)=O)c2)C1` (single isomer, unassigned) [Compound 121], the IC50 on PRMT5 [1] (setting [10]) was 50 to 500 nM; in assay [2] (setting [11]) it was < 100 nM; on PRMT5 [3], 50 to 500 nM; in assay [4] (setting [9]), 1000 to 10000 nM; in assay [5], > 1000 nM; on PRMT5 [6], < 50 nM. Moreover, the “MTAP intact/deleted ratio” value in assay [2] (setting [12]) is “A (an IC50 ratio greater than or equal to 10 fold)”.

As to `Cc1ccc([C@@H]2CC[C@@H](C)CN2C(=O)C(=O)Nc2cncc(C(N)=O)c2)cc1Cl` (single isomer, unassigned) [Compound 485], the IC50 was > 500 nM at PRMT5 [1] (read-out: No Cofactor/rel IC50); > 1000 nM in assay [2] (setting [7]); > 500 nM on PRMT5 [3]; > 10000 nM in assay [4] (setting [9]); > 1000 nM in assay [5]; > 500 nM at PRMT5 [6]. In addition, the MTAP intact/deleted ratio result in assay [2] (setting [12]) is “C (an IC50 ratio of less than 3 fold)”.

For `Cc1cc([C@H]2CC[C@H](C)CN2C(=O)C(=O)Nc2cnc(N)c(C)c2)ccn1` (single isomer, unassigned) [Compound 593], the IC50 is > 500 nM on PRMT5 [1] (read-out: No Cofactor/rel IC50); > 1000 nM in assay [2] (setting [11]); > 500 nM at PRMT5 [3]; > 10000 nM in assay [4] (setting [13]); > 1000 nM in assay [5]; > 500 nM at PRMT5 [6]. Further, the MTAP intact/deleted ratio entry in assay [2] (setting [12]) is recorded as “B (an IC50 ratio greater than or equal to 3 fold but lower than 10 fold)”.

Take `Cc1cc(NC(=O)C(=O)N2CCCC[C@@H]2c2ccncc2)cnc1N` (single isomer, unassigned) [Compound 50]: the IC50 at PRMT5 [1] (setting [10]) is 50 to 500 nM; in assay [2] (setting [11]) it was 100 to 1000 nM; at PRMT5 [3] it was 50 to 500 nM; in assay [4] (setting [9]) it was > 10000 nM; in assay [5], > 1000 nM; at PRMT5 [6], < 50 nM. For the same compound, in assay [2] (setting [12]), the “MTAP intact/deleted ratio” value was “B (an IC50 ratio greater than or equal to 3 fold but lower than 10 fold)”.

As to `COc1ncc(NC(=O)C(=O)N2C[C@@H](C)CC[C@@H]2c2ccc(-c3nccs3)cc2)cc1C(N)=O` (single isomer, unassigned) [Compound 811], the IC50 at PRMT5 [1] (read-out: No Cofactor/rel IC50) was 50 to 500 nM; in assay [2] (setting [7]), 100 to 1000 nM; on PRMT5 [3], 50 to 500 nM; in assay [4] (setting [14]), 1000 to 10000 nM; in assay [5], > 1000 nM; on PRMT5 [6], < 50 nM. For the same compound, in assay [2] (setting [12]), the MTAP intact/deleted ratio result is given as “A (an IC50 ratio greater than or equal to 10 fold)”.

Consider `C[C@@H]1CC[C@@H](c2ccc3sc(CCN(C)C)nc3c2)N(C(=O)C(=O)Nc2cncc(C(N)=O)c2)C1` (single isomer, unassigned) [Compound 1254], for which the IC50 at PRMT5 [1] (setting [10]) was < 50 nM; in assay [2] (setting [11]) it was < 100 nM; on PRMT5 [3], < 50 nM; in assay [4] (setting [15]) it was < 1000 nM; in assay [5], 100 to 1000 nM; at PRMT5 [6], < 50 nM. Further, the “MTAP intact/deleted ratio” value in assay [2] (setting [12]) is listed as “A (an IC50 ratio greater than or equal to 10 fold)”.

As for `Cc1cc(NC(=O)C(=O)N2CCCC[C@H]2c2cccnc2)cnc1N` (single isomer, unassigned) [Compound 69], the IC50 on PRMT5 [1] (setting [10]) is 50 to 500 nM; in assay [2] (setting [11]), 100 to 1000 nM; at PRMT5 [3] it was 50 to 500 nM; in assay [4] (setting [9]), > 10000 nM; in assay [5], > 1000 nM; at PRMT5 [6], < 50 nM. Moreover, in assay [2] (setting [12]), the “MTAP intact/deleted ratio” value is reported as “A (an IC50 ratio greater than or equal to 10 fold)”.

With `C[C@@H]1CC[C@@H](c2ccc3c(c2)C[C@H](C)O3)N(C(=O)C(=O)Nc2cncc(C(N)=O)c2)C1` (single isomer, unassigned) [Compound 345], the IC50 at PRMT5 [1] (read-out: No Cofactor/rel IC50) is 50 to 500 nM; in assay [2] (setting [7]), 100 to 1000 nM; at PRMT5 [3], 50 to 500 nM; in assay [4] (setting [9]), 1000 to 10000 nM; in assay [5], > 1000 nM; at PRMT5 [6], < 50 nM. The MTAP intact/deleted ratio result in assay [2] (setting [12]) is “A (an IC50 ratio greater than or equal to 10 fold)”.

`CCc1cc(NC(=O)C(=O)N2C[C@@H](C)CC[C@@H]2c2ccc3sc(C45CC(CN(C)C4)C5)nc3c2)cnc1N` [Compound 1212, N-(6-amino-5-ethylpyridin-3-yl)-2-((2R,5S)-5-methyl-2-(2-(3-methyl-3-azabicyclo[3.1.1]heptan-1-yl)benzo[d]thiazol-5-yl)piperidin-1-yl)-2-oxoacetamide]: the IC50 at PRMT5 [1] (read-out: No Cofactor/rel IC50) was < 50 nM; in assay [2] (setting [7]) it was < 100 nM; at PRMT5 [3], < 50 nM; in assay [4] (setting [9]) it was < 1000 nM; in assay [5], < 100 nM; at PRMT5 [6] it was < 50 nM. Also, the MTAP intact/deleted ratio result in assay [2] (setting [8]) is on record as “B (an IC50 ratio greater than or equal to 3 fold but lower than 10 fold)”.

With `C[C@H]1CC[C@H](c2ccc(C(F)(F)F)cc2)N(C(=O)C(=O)Nc2cncc(C(N)=O)c2)C1` (single isomer, unassigned) [Compound 511], the IC50 is 50 to 500 nM on PRMT5 [1] (read-out: No Cofactor/rel IC50); 100 to 1000 nM in assay [2] (setting [7]); 50 to 500 nM at PRMT5 [3]; 1000 to 10000 nM in assay [4] (setting [9]); > 1000 nM in assay [5]; < 50 nM at PRMT5 [6]. Moreover, in assay [2] (setting [12]), the MTAP intact/deleted ratio entry is listed as “A (an IC50 ratio greater than or equal to 10 fold)”.

Regarding `CCN1CCC(c2nc3cc([C@H]4CC[C@H](C)CN4C(=O)C(=O)Nc4cnc(N)c(C)c4)ccc3s2)CC1` [Compound 1335, N-(6-amino-5-methylpyridin-3-yl)-2-((2R,5S)-2-(2-(1-ethylpiperidin-4-yl)benzo[d]thiazol-5-yl)-5-methylpiperidin-1-yl)-2-oxoacetamide], the IC50 was < 50 nM at PRMT5 [1] (setting [10]); < 100 nM in assay [2] (setting [11]); < 50 nM at PRMT5 [3]; < 1000 nM in assay [4] (setting [15]); < 100 nM in assay [5]; < 50 nM at PRMT5 [6]. For the same compound, the “MTAP intact/deleted ratio” value in assay [2] (setting [12]) was “A (an IC50 ratio greater than or equal to 10 fold)”.

In the case of `Cc1cc(NC(=O)C(=O)N2CCCCC2c2ccccc2)cnc1N` (racemic) [Compound 53, N-(6-Amino-5-methyl-3-pyridyl)-2-oxo-2-(2-phenyl-1-piperidyl)acetamide], the IC50 is 50 to 500 nM on PRMT5 [1] (setting [10]); 100 to 1000 nM in assay [2] (setting [11]); 50 to 500 nM at PRMT5 [3]; > 10000 nM in assay [4] (setting [9]); > 1000 nM in assay [5]; < 50 nM at PRMT5 [6]. Besides, the “MTAP intact/deleted ratio” value in assay [2] (setting [12]) is “A (an IC50 ratio greater than or equal to 10 fold)”.

Turning to `CCOc1ncc(NC(=O)C(=O)N2C[C@@H](C)CC[C@@H]2c2ccccc2)cc1C(N)=O` (racemic) [Compound 738], the IC50 on PRMT5 [1] (read-out: No Cofactor/rel IC50) is 50 to 500 nM; in assay [2] (setting [7]), > 1000 nM; at PRMT5 [3] it was 50 to 500 nM; in assay [4] (setting [14]), > 10000 nM; in assay [5], > 1000 nM; on PRMT5 [6], 50 to 500 nM. The MTAP intact/deleted ratio entry in assay [2] (setting [12]) is given as “B (an IC50 ratio greater than or equal to 3 fold but lower than 10 fold)”.

In the case of `Cc1ccc2cc([C@@H]3CC[C@@H](C)CN3C(=O)C(=O)Nc3cncc(C(N)=O)c3)ccc2n1` (racemic) [Compound 167, rac-5-{2-[(2R,5S)-5-Methyl-2-(2-methylquinolin-6-yl)piperidin-1-yl]-2-oxoacetamido}pyridine-3-carboxamide], the IC50 at PRMT5 [1] (setting [10]) is 50 to 500 nM; in assay [2] (setting [11]), 100 to 1000 nM; at PRMT5 [3], 50 to 500 nM; in assay [4] (setting [9]), 1000 to 10000 nM; in assay [5], > 1000 nM; at PRMT5 [6], < 50 nM. Besides, the “MTAP intact/deleted ratio” value in assay [2] (setting [12]) was “A (an IC50 ratio greater than or equal to 10 fold)”.

As for `Cc1cc(NC(=O)C(=O)N2C[C@H](C)C(F)(F)C[C@H]2c2ccc(F)c(F)c2)cnc1N` (single isomer, unassigned) [Compound 684], the IC50 was > 500 nM on PRMT5 [1] (read-out: No Cofactor/rel IC50); > 1000 nM in assay [2] (setting [11]); > 500 nM on PRMT5 [3]; > 10000 nM in assay [4] (setting [13]); > 1000 nM in assay [5]; > 500 nM at PRMT5 [6]. Moreover, the MTAP intact/deleted ratio entry in assay [2] (setting [12]) is listed as “C (an IC50 ratio of less than 3 fold)”.

The values are drawn from patent US11999727B2 (Tango Therapeutics, Inc., priority 2020, dated 2024).
